PMC10388362, “Fluorescent Ligands Enable Target Engagement Studies for the Intracellular Allosteric Binding Site of the Chemokine Receptor CXCR2” (Journal of Medicinal Chemistry, 2023)
Values joined by “and” are separate entries in the source; they are usually repeats but may differ in a detail not shown here. Identical values can stand only once.

Experiments:
[1] = target: T1, CXCR2 (Homo sapiens, UniProt P25025); assay: Live cell NanoBRET saturation binding (HEK293T cells expressing CXCR2_Nluc)
T1 construct: Promega pNLF1-C (Nluc) #CXCR20TN00; host or cells: HEK293T, transient transfection (PEI)
T1 sequence (P25025 1-360): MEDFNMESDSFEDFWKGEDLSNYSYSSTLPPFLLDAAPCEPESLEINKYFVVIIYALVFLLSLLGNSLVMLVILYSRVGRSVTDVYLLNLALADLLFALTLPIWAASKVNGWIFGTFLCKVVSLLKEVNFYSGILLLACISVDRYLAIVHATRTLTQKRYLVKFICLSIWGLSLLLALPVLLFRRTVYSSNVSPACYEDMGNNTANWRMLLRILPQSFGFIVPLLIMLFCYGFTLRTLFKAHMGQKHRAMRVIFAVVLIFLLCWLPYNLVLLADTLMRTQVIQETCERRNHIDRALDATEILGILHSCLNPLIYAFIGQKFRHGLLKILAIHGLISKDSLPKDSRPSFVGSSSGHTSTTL
Experimental: HEK293T cells were transfected with the plasmid (5.5 μg) for CXCR2_Nluc using polyethylenimine (PEI) as transfection reagent (PEI/DNA ratio 3:1). After 24 h at 37 °C and 5% CO2, the cells were detached with DMEM and transferred to a white F-bottom 384-well plate (10,000 cells/well), which was coated with 5 μL/well poly-D-lysine (0.1 mg/mL, dissolved in water), and incubated for further 24 h at 37 °C and 5% CO2. Subsequently, the cells were washed with phosphate-buffered saline (Gibco DPBS, with CaCl2 and MgCl2). The assay medium (Gibco DMEM/F12, 15 mM HEPES, no phenol red supplemented with 5% FBS) was added and the cells were incubated at 37 °C for 30 min. […]
After 120 min of incubation at 37 °C, 5 μL of a furimazine solution (final assay dilution: 1:2500, diluted with assay medium) was added. Subsequent to a further incubation of 5 min in the dark at 37 °C, BRET ratios were measured with a CLARIOstar microplate reader using 620/10 and 475/30 nm emission filters. Total, nonspecific and specific binding, which was calculated as a difference of total and nonspecific binding, were analyzed using the algorithms for one-site saturation binding in PRISM9.5 (GraphPad). To determine the inhibition constants (Ki) of the potential competitors, data were normalized to total and nonspecific binding and analyzed using the one-site-fit Ki equation in PRISM9.5 (GraphPad).

[2] = target: T1, CXCR2; assay: Membrane-based NanoBRET association and dissociation kinetic assay; format: binding
Experimental: 5 μL of a solution of the fluorescent ligand (9a) diluted to varying concentrations (final assay concentrations: 10–100 nM) in the assay buffer and 5 μL of the assay buffer were transferred to a 384-well plate. For the determination of nonspecific binding, we added a solution of a nonlabeled competitor dissolved in the assay buffer (3, final assay concentration: 10 μM) instead. After the addition of 5 μL of a furimazine solution (final assay dilution: 1:350 in assay buffer), plates were incubated for 3 min in the dark at ambient temperature. Subsequently, 20 μL of the membrane preparation (2 μg total protein/well) was added (final assay volume: 35 μL). BRET ratios were measured with a CLARIOstar microplate reader using 620/10 and 475/30 nm emission filters over time at ambient temperature or 37 °C. The obtained data were analyzed using the association kinetics (one ligand concentration) algorithm in PRISM9.5 (GraphPad) to determine association kinetics using a predetermined koff as a constraint.
5 μL of a solution of the fluorescent ligand (9a) diluted to varying concentrations (final assay concentrations: 10–100 nM) in the assay buffer and 5 μL of the assay buffer were transferred to a 384-well plate. In order to determine nonspecific binding, we added a solution of a nonlabeled competitor dissolved in the assay buffer (3, final assay concentration: 10 μM) instead of the 5 μL of the assay buffer. Then, 20 μL of the membrane preparation (2 μg total protein/well) was added, and plates were incubated for 4 h at ambient temperature in the dark. Subsequently, 5 μL of a vivazine solution (final assay dilution: 1:350 in assay buffer) was added. Plates were incubated for further 60 min in the dark at ambient temperature. Thereafter, 1 μL of a solution of a […] competitor dissolved in the assay buffer (3, final assay concentration: 10 μM) was added. For control experiments, we added 1 μL of the assay buffer instead of the competitor solution. BRET ratios were measured with a CLARIOstar microplate reader using 620/10 and 475/30 nm emission filters over time at ambient temperature or 37 °C. Specific BRET ratios were calculated as a difference of total and nonspecific binding. The obtained data were analyzed using the dissociation—one phase exponential decay algorithm in PRISM9.5 (GraphPad) to determine dissociation kinetics.

[3] = CXCR2_Nluc membranes, 37 °C, mean
[4] = CXCR2_Nluc membranes, room temperature, mean
[5] = membranes, 37 °C, 9a 10 nM, single determinations
[6] = membranes, 37 °C, 9a 10 nM, single determinations, koff fixed 0.00569 min-1
[7] = membranes, 37 °C, 9a 25 nM, single determinations
[8] = membranes, 37 °C, 9a 25 nM, single determinations, koff fixed 0.00569 min-1
[9] = membranes, 37 °C, 9a 50 nM, single determinations
[10] = membranes, 37 °C, 9a 50 nM, single determinations, koff fixed 0.00569 min-1
[11] = membranes, 37 °C, 9a 100 nM, single determinations
[12] = membranes, 37 °C, 9a 100 nM, single determinations, koff fixed 0.00569 min-1
[13] = membranes, room temperature, 9a 10 nM, single determinations
[14] = membranes, room temperature, 9a 25 nM, single determinations
[15] = membranes, room temperature, 9a 50 nM, single determinations
[16] = membranes, room temperature, 9a 100 nM, single determinations

Cc1ccc([C@H](Nc2c(Nc3cccc(C(=O)NCc4cn(CCOCCOCCOCCNC(=O)c5ccc(C(=O)[O-])c(-c6c7ccc(=[N+](C)C)cc-7oc7cc(N(C)C)ccc67)c5)nn4)c3O)c(=O)c2=O)C(C)(C)C)o1 [9a, (R)-4-((2-(2-(2-(2-(4-((3-((2-((2,2-Dimethyl-1-(5-methylfuran-2-yl)propyl)amino)-3,4-dioxocyclobut-1-en-1-yl)amino)-2-hydroxybenzamido)methyl)-1H-1,2,3-triazol-1-yl)ethoxy)ethoxy)ethoxy)ethyl)carbamoyl)-2-(6-(dimethylamino)-3-(dimethyliminio)-3H-xanthen-9-yl)benzoate]
Kd ([1]; live HEK293T cells transiently expressing CXCR2_Nluc, 37 °C, read-out: Kd (equilibrium saturation binding)): 0.25 ± 0.01 nM | passage of the cell membrane ([1]; live HEK293T cells, inferred from cellular binding): able to pass the cell membrane | koff [2, 3]: 9.48e-05 s⁻¹ | kon [2, 3]: 32600 M⁻¹ s⁻¹ | tR [2, 3]: 178.8 min | Kd ([2]; CXCR2_Nluc membranes, cell-free, 37 °C): 2.91 ± 0.27 nM | Kd ([2]; CXCR2_Nluc membranes, room temperature): 1.94 ± 0.27 nM | koff [2, 4]: 3.57e-05 s⁻¹ | kon [2, 4]: 18300 M⁻¹ s⁻¹ | residence time tr [2, 4]: 485.6 min | residence time ([2]; CXCR2_Nluc membranes, room temperature, mean, read-out: residence time tr): 486 ± 28 min | koff [2, 5]: 8.83e-05 s⁻¹ | koff [min-1] [2, 5]: 0.00567 min⁻¹ and 0.00464 min⁻¹ | tR [2, 5]: 188.6 min and 176.4 min and 215.5 min | kon [2, 6]: 42500 M⁻¹ s⁻¹ | kon [M-1 min-1] [2, 6]: 52685.82 M⁻¹ s⁻¹ and 46570.12 M⁻¹ s⁻¹ | koff [2, 7]: 0.000102 s⁻¹ | koff [min-1] [2, 7]: 0.00658 min⁻¹ and 0.00473 min⁻¹ | tR [2, 7]: 162.5 min and 152.0 min and 211.3 min | kon [2, 8]: 29600 M⁻¹ s⁻¹ | kon [M-1 min-1] [2, 8]: 40515.73 M⁻¹ s⁻¹ and 31065.33 M⁻¹ s⁻¹ | koff [2, 9]: 9.33e-05 s⁻¹ | koff [min-1] [2, 9]: 0.0059 min⁻¹ and 0.00531 min⁻¹ | tR [2, 9]: 178.6 min and 169.4 min and 188.3 min | kon [2, 10]: 26700 M⁻¹ s⁻¹ | kon [M-1 min-1] [2, 10]: 29466.47 M⁻¹ s⁻¹ and 24036.28 M⁻¹ s⁻¹ | koff [2, 11]: 0.000105 s⁻¹ | koff [min-1] [2, 11]: 0.00726 min⁻¹ and 0.00487 min⁻¹ | tR [2, 11]: 159.6 min and 137.7 min and 205.4 min | kon [2, 12]: 23300 M⁻¹ s⁻¹ | kon [M-1 min-1] [2, 12]: 25508.45 M⁻¹ s⁻¹ and 19799.72 M⁻¹ s⁻¹ | koff [2, 13]: 3.12e-05 s⁻¹ | koff [min-1] [2, 13]: 0.00183 min⁻¹ and 0.00215 min⁻¹ | tR [2, 13]: 534.2 min and 545.6 min and 464.7 min | koff [2, 14]: 2.9e-05 s⁻¹ | koff [min-1] [2, 14]: 0.00253 min⁻¹ and 0.00232 min⁻¹ | tR [2, 14]: 575.7 min and 394.8 min and 431.4 min | koff [2, 15]: 2.68e-05 s⁻¹ | koff [min-1] [2, 15]: 0.00305 min⁻¹ and 0.00242 min⁻¹ | tR [2, 15]: 619.6 min and 328.4 min and 413.1 min | koff [2, 16]: 2.58e-05 s⁻¹ | koff [min-1] [2, 16]: 0.00219 min⁻¹ and 0.00238 min⁻¹ | tR [2, 16]: 643.1 min and 457.0 min and 420.0 min
